Source: patent US20220281848A1, “PYRAZOLE-SUBSTITUTED PYRROLIDINONES AS HERBICIDES” (FMC Corporation, priority 2019, published 2022)

Key:
Format in all cases: in vivo
[1] = test system: giant foxtail (Setaria faberi, SETFA); assay: Test A pre-emergence, giant foxtail; details: after 13 d
How it was run: (§1)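 Seeds were sown in standard soil in pots, kept one day in a glasshouse (24/16° C. day/night, 14 h light, 65% humidity), then sprayed with compound in acetone/water (50:50) containing 0.5% Tween 20 at 15.625, 62.5 or 250 g/ha. Plants grew on under the same conditions, watered twice daily, and damage was scored after 13 d (0 = none, 100 = total).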

[2] = test system: velvetleaf (Abutilon theophrasti, ABUTH); assay: Test A pre-emergence, velvetleaf; details: after 13 d
How it was run: as §1

corn (Zea mays, ZEAMX) = assay: Test A post-emergence, corn; details: after 13 d
How it was run: (§2)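 Plants sown in standard soil were grown 8 d in a glasshouse (24/16 °C day/night, 14 h light, 65% humidity), then sprayed with compound in acetone/water (50:50) with 0.5% Tween 20 at 15.625, 62.5 or 250 g/ha. Damage was scored after 13 d (0 = none, 100 = total).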

[3] = test system: giant foxtail (Setaria faberi, SETFA); assay: Test A post-emergence, giant foxtail; details: after 13 d
How it was run: as §2

[4] = test system: barnyardgrass (Echinochloa crus-galli, ECHCG); assay: Test A post-emergence, barnyardgrass; details: after 13 d
How it was run: as §2

[5] = test system: ivy-leaved morning glory (Ipomoea hederacea, IPOHE); assay: Test A post-emergence, ivy-leaved morning glory; details: after 13 d
How it was run: as §2

wheat = assay: Test D pre-emergence, wheat seed treated with a herbicide safener; details: 100=total damage, 0=no damage
Description: A formulation containing 50 g/L of the test chemical was prepared by dissolving the active ingredient in a mixture of organic solvents and emulsifier, details of which are provided in the table. This formulation was then mixed with a small, variable amount of acetone to aid dissolution, before addition of a 0.2% v/v aqueous solution of an adjuvant, as the aqueous diluent, to form an aqueous spray solution which contains a predetermined concentration of the active ingredient.
This aqueous spray solution was then sprayed onto plants including maize and wheat that had been seed treated with a herbicide safener, after one day's cultivation (for pre-emergence) or after about 12 days' cultivation (for post-emergence). The plants were grown from seeds sown in standard soil, placed in a glasshouse under controlled conditions (at 24/18° C. or 20/16° C., day/night; 16 h light; 65% humidity). After spray application the plants were then grown in a glasshouse under the same conditions and watered twice daily. After 15 d for post-emergence and 20 DAA for pre-emergence the test was evaluated (100=total damage to plant; 0=no damage to plant).

| Compound | damage to plant (100=total damage; 0=no damage) SETFA ([1]; Pre-Emergence at 15.625 g/ha) | damage to plant (100=total damage; 0=no damage) SETFA ([1]; Pre-Emergence at 62.5 g/ha) | damage to plant (100=total damage; 0=no damage) SETFA ([1]; Pre-Emergence at 250 g/ha) | damage to plant (100=total damage; 0=no damage) ABUTH ([2]; Pre-Emergence at 15.625 g/ha) | damage to plant (100=total damage; 0=no damage) ABUTH ([2]; Pre-Emergence at 62.5 g/ha) | damage to plant (100=total damage; 0=no damage) ABUTH ([2]; Pre-Emergence at 250 g/ha) | damage to plant (100=total damage; 0=no damage) ZEAMX (corn (Zea mays, ZEAMX); Post-Emergence at 15.625 g/ha) | damage to plant (100=total damage; 0=no damage) ZEAMX (corn (Zea mays, ZEAMX); Post-Emergence at 62.5 g/ha) | damage to plant (100=total damage; 0=no damage) ZEAMX (corn (Zea mays, ZEAMX); Post-Emergence at 250 g/ha) | damage to plant (100=total damage; 0=no damage) SETFA ([3]; Post-Emergence at 15.625 g/ha) | damage to plant (100=total damage; 0=no damage) SETFA ([3]; Post-Emergence at 62.5 g/ha) | damage to plant (100=total damage; 0=no damage) SETFA ([3]; Post-Emergence at 250 g/ha) | damage to plant (100=total damage; 0=no damage) ECHCG ([4]; Post-Emergence at 15.625 g/ha) | damage to plant (100=total damage; 0=no damage) ECHCG ([4]; Post-Emergence at 62.5 g/ha) | damage to plant (100=total damage; 0=no damage) ECHCG ([4]; Post-Emergence at 250 g/ha) | damage to plant (100=total damage; 0=no damage) IPOHE ([5]; Post-Emergence at 15.625 g/ha) | damage to plant (100=total damage; 0=no damage) IPOHE ([5]; Post-Emergence at 62.5 g/ha) | damage to plant (100=total damage; 0=no damage) IPOHE ([5]; Post-Emergence at 250 g/ha) | damage to plant, TRZAW (wheat; rate 15, 20 DAA) | damage to plant, TRZAW (wheat; rate 30, 20 DAA) | other results |
| --- | --- | --- | --- | --- | --- | --- | --- | --- | --- | --- | --- | --- | --- | --- | --- | --- | --- | --- | --- | --- | --- |
| CN1CC(c2cc(C(F)(F)F)n(C)n2)C(C(=O)Nc2cccc(F)n2)C1=O (racemic) [Compound 24] | 70 | 90 | 90 | 0 | 0 | 0 | 0 | 10 | 40 | 20 | 70 | 80 | 40 | 80 | 80 | 10 | 20 | 50 | 0 | 0 | damage to plant, TRZAW (wheat; rate 60, 20 DAA): 0; damage to plant, TRZAW (wheat; rate 130, 20 DAA): 0; damage to plant, TRZAW (wheat; rate 250, 20 DAA): 0; damage to plant, TRZAW (wheat; rate 500, 20 DAA): 10 |
| CN1C[C@H](c2nn(C)c3c(F)cccc23)[C@@H](C(=O)Nc2cccc(F)c2F)C1=O [Compound 2] | 90 | 90 | 90 | 0 | 0 | 0 | 10 | 0 | 40 | 0 | 70 | 80 | 0 | 90 | 90 | 0 | 0 | 0 | 0 | 0 | damage to plant, TRZAW (wheat; rate 60, 20 DAA): 0; damage to plant, TRZAW (wheat; rate 130, 20 DAA): 10; damage to plant, TRZAW (wheat; rate 250, 20 DAA): 20; damage to plant, TRZAW (wheat; rate 500, 20 DAA): 80 |
| CN1CC(c2cc(C(F)(F)F)n(C)n2)C(C(=O)Nc2ccc(F)cc2F)C1=O (racemic) [Compound 6] | 80 | 90 | 90 | 80 | 70 | 70 | 10 | 20 | 60 | 0 | 70 | 70 | 70 | 70 | 70 | 40 | 20 | 10 | 0 | 0 | damage to plant, TRZAW (wheat; rate 60, 20 DAA): 0; damage to plant, TRZAW (wheat; rate 130, 20 DAA): 0; damage to plant, TRZAW (wheat; rate 250, 20 DAA): 0; damage to plant, TRZAW (wheat; rate 500, 20 DAA): 10 |
